Columns and labels:
whole blood = details: sodium citrate whole blood recalcified to 100 mM CaCl2, constant inlet pressure 20 mBar, PIV
Description: The whole blood sample for this example was drawn into a 3.2% sodium citrate containing vacutainer from a single healthy donor under an Institutional review board-approved protocol. The blood sample was stored at 4° C. upon collection and was processed within 24 h. […] Prior to the experiment, the whole blood sample was recalcified with the stock solution to obtain a final concentration of 100 mM CaCl2. […] The control experiment was performed by mixing the whole blood sample with PBS. Thereafter, the mixed blood sample was immediately injected into the microfluidic channel at a constant inlet pressure of 20 mBar by means of a Flow-EZ pressure control unit (Fluigent Inc., North Chelmsford, MA), as shown in FIG. 2. The constant supply pressure implies that the flow rate is reduced as the blood coagulates. The maximum initial shear rate was approximately 10 s^−1, and the shear rate reduced to zero as the flow slowed and eventually stopped due to microchannel blockage as coagulation occurred. The microfluidic channel was placed on an inverted microscope (Olympus IX83), and a video was recorded simultaneously under 4× magnification using a high-resolution camera (EXi Blue EXI-BLU-R-F-M-14-C) at 10 frames per second as soon as the flow was started. The field of view was centered on the microfluidic channel, and one pixel in the images corresponds to 1.58 μm. […]

citrate whole blood = test: Thrombin-induced thrombus formation in a microchannel; type: cell-based; details: citrate whole blood reconstituted with 16.7 μM calcium chloride only
Text: The influence of clotting disorders and therapies can be assessed in a case study using elevated levels of thrombin to promote coagulation. […] It is hypothesized that elevated levels of thrombin will produce distinctive, quantifiable effects on the evolution of the blood flow and the associated formation and growth of thrombi, and these experiments will allow us to assess the ability of our model to identify those effects. Additionally, the effect of heparin, a common anticoagulant therapy, on the blood flow will be evaluated by adding heparin into the blood samples at appropriate doses.

## [Ca+2].[Cl-].[Cl-] [CaCl2, calcium chloride]
Whole blood
  clotting time (dramatic drop in mean blood flow velocity): ~220 s
Citrate whole blood
  blood flow in microchannel: flows uniformly
  thrombus formation in microchannel: No thrombus formation
